In the supplement of paper PMC11208160:

Assay: recombinant barcode read abundance after kanamycin selection (control-corrected) (log10(CPM+1)); higher = more efficient recombination; sequences stand for … in AGTGCAGAGAAAATCGGCCAGTTTTCTCTGCCTGCAGTCCGCATGCCGT…AGATTTATGCAGCGGACTGCCTTTCTCCCAAAGTGATAAACCGGACAGTATCATGGACCGGTTTTCCCGGTAATCCGTATTTGCAAGGTTGGTTTCACT; site = the 11-nt target
Experimental: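 Pooled E. coli target-specificity screen for the IS621 bridge recombinase. Each library plasmid pairs an 11-nt target (CT core) with a bridge RNA whose target-binding loop (9-nt LTG + 4-nt RTG) is reprogrammed; the rest of the 177-nt WT IS621 bridge RNA scaffold is fixed. The plasmid is co-electroporated with a WT donor plasmid; recombinase is induced with 0.1 mM IPTG and recombinants are selected on kanamycin. Recombinant barcodes are sequenced, converted to CPM, averaged over two biological replicates and corrected by the unselected control CPM. Molecule = full bridge RNA written as DNA: LTG = specificity nt 1-9, RTG = reverse complement of specificity nt 8-11, in the WT scaffold.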
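Note: IS621 recombinase and bridge RNA in Escherichia coli cells.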

| Sequence | recombinant barcode read abundance (log10) |
| --- | --- |
| AGACTCCCTTGGGTTCTAACCTGTTGCCT (site AGGCTCCCTAG) | 0.0602 |
| AGACTCCCTTGGGTTCTAACCTGTTGCCT (site AGTCTCCCTAG) | 0.213 |
| AGAGAACCTTGGGTTCTAACCTGTTGCCT (site AGAGAACCTAG) | 2.33 |
| AGAGAACCTTGGGTTCTAACCTGTTGCCT (site CGAGAACCTAG) | 0.415 |
| AGAGAACCTTGGGTTCTAACCTGTTGCCT (site GGAGAACCTAG) | 0.219 |
| AGAGAACCTTGGGTTCTAACCTGTTGCCT (site TGAGAACCTAG) | 1.14 |
| AGAGAATCTTGGGTTCTAACCTGTTGCCT (site AGAGAATCTAG) | 1.28 |
| AGAGAATCTTGGGTTCTAACCTGTTGCCT (site AGCGAATCTAG) | 0.165 |
| AGAGAATCTTGGGTTCTAACCTGTTGCCT (site AGGGAATCTAG) | 0.13 |
| AGAGAATCTTGGGTTCTAACCTGTTGCCT (site AGTGAATCTAG) | 0.196 |
| AGAGATGCTTGGGTTCTAACCTGTTGCAG (site AGAGATGCTCT) | 1.8 |
| AGAGATGCTTGGGTTCTAACCTGTTGCAG (site AGAGGAGCTCT) | 0.289 |
| AGAGCCACTTGGGTTCTAACCTGTTGCTA (site AGAGCCACTTA) | 2.09 |
| AGAGCCACTTGGGTTCTAACCTGTTGCTA (site GCCATTCCTAT) | 0.0124 |
| AGAGGGTCTTGGGTTCTAACCTGTTGCTT (site AGAGGGTCTAA) | 1.82 |
| AGAGGGTCTTGGGTTCTAACCTGTTGCTT (site CGAGGGTCTAA) | 0.186 |
| AGAGGGTCTTGGGTTCTAACCTGTTGCTT (site GGAGGGTCTAA) | 0.0269 |
| AGAGGGTCTTGGGTTCTAACCTGTTGCTT (site TGAGGGTCTAA) | 0.606 |
| AGATCGGCTTGGGTTCTAACCTGTTGCCT (site AGATCGGCTAG) | 0.377 |
| AGATCGGCTTGGGTTCTAACCTGTTGCCT (site AGGTCGGCTAG) | 0.0375 |
| AGATTGACTTGGGTTCTAACCTGTTGCCA (site AGATTCACTAG) | 0.328 |

| Sequence | recombinant barcode read abundance (log10) |
| --- | --- |
| AGATTGACTTGGGTTCTAACCTGTTGCCA (site AGATTGACTTG) | 0.193 |
| AGATTGCCTTGGGTTCTAACCTGTTGCCT (site AGATTGCCTAG) | 0.489 |
| AGATTGCCTTGGGTTCTAACCTGTTGCCT (site TGATTTCCTAG) | 0 |
| AGCAGAGCTTGGGTTCTAACCTGTTGCGG (site AGCAGAGCTCA) | 1.12 |
| AGCAGAGCTTGGGTTCTAACCTGTTGCGG (site AGCAGAGCTCC) | 1.95 |
| AGCAGAGCTTGGGTTCTAACCTGTTGCGG (site AGCAGAGCTCG) | 0.0598 |
| AGCAGAGCTTGGGTTCTAACCTGTTGCGG (site AGCAGAGCTCT) | 1.1 |
| AGCAGCCCTTGGGTTCTAACCTGTTGCAG (site AGCAGCCCTCT) | 1.72 |
| AGCAGCCCTTGGGTTCTAACCTGTTGCAG (site GTTCCAGCTAG) | 0.0963 |
| AGCATAACTTGGGTTCTAACCTGTTGCCT (site AGCATAACTAG) | 0.187 |
| AGCATAACTTGGGTTCTAACCTGTTGCCT (site AGGAGAACTAG) | 0.261 |
| AGCCACGCTTGGGTTCTAACCTGTTGCCT (site AGCCACACTAG) | 0.124 |
| AGCCACGCTTGGGTTCTAACCTGTTGCCT (site AGCCACCCTAG) | 0.27 |
| AGCCACGCTTGGGTTCTAACCTGTTGCCT (site AGCCACGCTAG) | 1.11 |
| AGCCACGCTTGGGTTCTAACCTGTTGCCT (site AGCCACTCTAG) | 0.153 |
| AGCCATCCTTGGGTTCTAACCTGTTGCAT (site AGCCATCCTAT) | 0.723 |
| AGCCATCCTTGGGTTCTAACCTGTTGCAT (site TGCCATCCTAT) | 0.0638 |
| AGCCCGCCTTGGGTTCTAACCTGTTGCCT (site AGCCCGCCTAG) | 0.358 |
| AGCCCGCCTTGGGTTCTAACCTGTTGCCT (site CGCCCGCCTAG) | 0.39 |
| AGCCCGCCTTGGGTTCTAACCTGTTGCCT (site GGCCCGCCTAG) | 0.178 |
| AGCCCGCCTTGGGTTCTAACCTGTTGCCT (site TGCCCGCCTAG) | 0.157 |

| Sequence | recombinant barcode read abundance (log10) |
| --- | --- |
| AGCCCTTCTTGGGTTCTAACCTGTTGCTT (site AGCCCTTCTAA) | 0.083 |
| AGCCCTTCTTGGGTTCTAACCTGTTGCTT (site GTAGGGACTCG) | 0.0698 |
| AGCCTCCCTTGGGTTCTAACCTGTTGCCA (site AGCCTCCCTTG) | 0.663 |
| AGCCTCCCTTGGGTTCTAACCTGTTGCCA (site CAGGGGTCTAT) | 0.121 |
| AGCGAGGCTTGGGTTCTAACCTGTTGCCT (site AGCGAAGCTAG) | 0.0233 |
| AGCGAGGCTTGGGTTCTAACCTGTTGCCT (site AGCGAGGCTAG) | 0.188 |
| AGCGCGCCTTGGGTTCTAACCTGTTGCTG (site AGCGCGCCTCA) | 0.224 |
| AGCGCGCCTTGGGTTCTAACCTGTTGCTG (site GAGTACACTGC) | 0.00819 |
| AGCGCTCCTTGGGTTCTAACCTGTTGCCT (site AACGCTCCTAG) | 0.0472 |
| AGCGCTCCTTGGGTTCTAACCTGTTGCCT (site ACCGCTCCTAG) | 0.305 |
| AGCGCTCCTTGGGTTCTAACCTGTTGCCT (site AGCGCTCCTAG) | 0.68 |
| AGCGCTCCTTGGGTTCTAACCTGTTGCCT (site ATCGCTCCTAG) | 0 |
| AGCGGCCCTTGGGTTCTAACCTGTTGCCT (site AGCGGACCTAG) | 0.466 |
| AGCGGCCCTTGGGTTCTAACCTGTTGCCT (site AGCGGCCCTAG) | 1.26 |
| AGCGGCCCTTGGGTTCTAACCTGTTGCCT (site AGCGGGCCTAG) | 0.0662 |
| AGCGGCCCTTGGGTTCTAACCTGTTGCCT (site AGCGGTCCTAG) | 0.0761 |
| AGCTAATCTTGGGTTCTAACCTGTTGCTT (site AGCTAATCTAA) | 0.0369 |
| AGCTAATCTTGGGTTCTAACCTGTTGCTT (site GAGCTGCCTTG) | 0.0324 |
| AGCTATGCTTGGGTTCTAACCTGTTGCCT (site AGCTATGCTAG) | 0.317 |
| AGCTATGCTTGGGTTCTAACCTGTTGCCT (site GAAATACCTCC) | 0.138 |
| AGCTGTCCTTGGGTTCTAACCTGTTGCAG (site AGCTGTCCTCT) | 0.273 |

| Sequence | recombinant barcode read abundance (log10) |
| --- | --- |
| AGCTGTCCTTGGGTTCTAACCTGTTGCAG (site TAGGCGGCTAC) | 0.0556 |
| AGCTTAGCTTGGGTTCTAACCTGTTGCCA (site AGCTTAGCTAG) | 0.484 |
| AGCTTAGCTTGGGTTCTAACCTGTTGCCA (site AGCTTAGCTCG) | 0.365 |
| AGCTTAGCTTGGGTTCTAACCTGTTGCCA (site AGCTTAGCTGG) | 0.463 |
| AGCTTAGCTTGGGTTCTAACCTGTTGCCA (site AGCTTAGCTTG) | 0.387 |
| AGGAACACTTGGGTTCTAACCTGTTGCCT (site AGAAACACTAG) | 1.36 |
| AGGAACACTTGGGTTCTAACCTGTTGCCT (site AGGAACACTAG) | 1.94 |
| AGGAACACTTGGGTTCTAACCTGTTGCTG (site AGGAACACTAA) | 0.803 |
| AGGAACACTTGGGTTCTAACCTGTTGCTG (site AGGAACACTCA) | 2.65 |
| AGGAACTCTTGGGTTCTAACCTGTTGCAT (site AGGAACTCTAT) | 2.44 |
| AGGAACTCTTGGGTTCTAACCTGTTGCAT (site GGGAACCCTAT) | 0.0839 |
| AGGAACTCTTGGGTTCTAACCTGTTGCTT (site AGGAACTCTAA) | 1.87 |
| AGGAACTCTTGGGTTCTAACCTGTTGCTT (site AGGAGCTCTTA) | 0.0561 |
| AGGAAGACTTGGGTTCTAACCTGTTGCCA (site AGGAAGACTTG) | 0.948 |
| AGGAAGACTTGGGTTCTAACCTGTTGCCA (site AGGCAGACTTG) | 0.0465 |
| AGGAAGACTTGGGTTCTAACCTGTTGCCA (site AGGGAGACTTG) | 0.239 |
| AGGAAGACTTGGGTTCTAACCTGTTGCCA (site AGGTAGACTTG) | 0.412 |
| AGGAAGACTTGGGTTCTAACCTGTTGCCG (site AGGAAGACTCC) | 0.883 |
| AGGAAGACTTGGGTTCTAACCTGTTGCCG (site AGGAAGACTCG) | 1.95 |
